This note sets out measurements from patent publication US11008313B2, “Substituted 1-methyl-1,2,3,4-tetrahydroisoquinoline molecules as PCSK9 allosteric binders” (Merck Sharp & Dohme Corp., priority 2016, dated 2021).

In experiment [1] the target is T1, PCSK9 (Homo sapiens, UniProt Q8NBP7). Nature of the experiment: Differential scanning calorimetry (DSC) assay, direct binding / thermal stabilization of PCSK9. The settings on record: Tm(with compound)−Tm(no compound); 2 μM PCSK9, 300 μM test compound. As to the method:
Differential scanning calorimetry (DSC) was used as a biophysical method to confirm direct binding to PCSK9. A solution containing 2 μM PCSK9 with or without 300 μM test compound in 25 mM HEPES (pH 7.5)/150 mM NaCl/1 mM CaCl2/3.75% DMSO was transferred to the sample cell of the DSC instrument, while buffer alone was placed in the reference cell. Both cells were heated at a constant rate (200° C./hr) from 20-80° C. while recording the excess heat capacity of the sample cell relative to the reference cell. Each thermogram was analyzed to provide the melting temperature (Tm) of the protein.
The higher the temperature shift generally, the higher the affinity.
(Differential scanning calorimetry records heat flow against a reference as temperature is scanned.)

For experiment [2], the target named is T1, PCSK9. Description: Fluorescence polarization competition binding assay (probe: compound of Example 57). The settings on record: 2 μM PCSK9, 50 nM compound of Example 57 as probe, overnight incubation; read-out: FP IC. How it is done: Relative compound affinities were determined using a competition binding assay with a fluorescence polarization format. Solution (49 μL) containing 2 μM PCSK9 and 50 nM compound of Example 57 in 20 mM HEPES (pH 7.5)/150 mM NaCl/1 mM CaCl2/0.005% P-20 was dispensed to wells of a 384-well black non-binding microplate before the addition of 1 μL of test compound or DMSO. After mixing, the plate was centrifuged and sealed for overnight incubation in the dark. The anisotropy signal was read using a fluorescence polarization protocol on a Perkin-Elmer Envision plate reader. The % inhibition was determined relative to the window defined by the DMSO control wells and wells containing 50 nM probe in the absence of PCSK9.

T1 sequence (Q8NBP7 153-692): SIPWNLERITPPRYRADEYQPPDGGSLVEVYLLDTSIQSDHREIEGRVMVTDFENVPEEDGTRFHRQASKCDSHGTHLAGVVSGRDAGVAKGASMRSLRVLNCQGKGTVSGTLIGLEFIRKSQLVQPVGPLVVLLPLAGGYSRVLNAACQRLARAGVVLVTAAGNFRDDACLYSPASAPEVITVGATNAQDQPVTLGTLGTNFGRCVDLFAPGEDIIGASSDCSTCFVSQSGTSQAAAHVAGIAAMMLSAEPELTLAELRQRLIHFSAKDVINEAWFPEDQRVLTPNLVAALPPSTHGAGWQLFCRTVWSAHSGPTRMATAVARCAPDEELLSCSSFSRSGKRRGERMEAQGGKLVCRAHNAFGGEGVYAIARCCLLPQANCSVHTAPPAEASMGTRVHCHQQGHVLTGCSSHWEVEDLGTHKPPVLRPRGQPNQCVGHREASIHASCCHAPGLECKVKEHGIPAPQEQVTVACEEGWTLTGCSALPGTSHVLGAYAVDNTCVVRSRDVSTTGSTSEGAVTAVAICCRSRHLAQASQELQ

The ΔTm is the shift of the melting midpoint relative to a reference. `C[C@]1(CC(=O)Nc2nccs2)NCCc2cc(OCC3CCCCO3)c(Oc3ccc(C(=O)O)c(F)c3)cc21` (single isomer, unassigned) [Example 70, 2-fluoro-4-(((1R)-1-methyl-1-(2-oxo-2-(thiazol-2-ylamino)ethyl)-6-(((R or S)-tetrahydro-2H-pyran-2-yl)methoxy)-1,2,3,4-tetrahydroisoquinolin-7-yl)oxy)benzoic acid]: in experiment [1], the ΔTm at 300 µM was determined as 7.98 °C. Also, the IC50 in experiment [2] worked out at 551 nM.

Take `CC1=CC(C)=[N+]2C1=Cc1ccc(CCC(=O)NCCOCCOc3cc4c(cc3Oc3ccc(C(=O)O)c(F)c3)[C@@](C)(CC(=O)Nc3nccs3)NCC4)n1[B-]2(F)F` [Example 57]: the “DSC ΔTm” value in experiment [1] came out at 6.15 °C.

For `C[C@]1(CC(=O)Nc2nccs2)NCCc2cc(OCCOCCOCCNC(=O)CCCC[C@@H]3SC[C@@H]4NC(=O)N[C@@H]43)c(Oc3ccc(C(=O)O)cc3)cc21` [Example 58, 4-(((R)-1-methyl-1-(2-oxo-2-(thiazol-2-ylamino)ethyl)-6-(2-(2-(2-(5-((3aS,4S,6aR)-2-oxohexahydro-1H-thieno[3,4-d]imidazol-4-yl)pentanamido)ethoxy)ethoxy)ethoxy)-1,2,3,4-tetrahydroisoquinolin-7-yl)oxy)benzoic acid], in experiment [1], the ΔTm at 300 µM came to 5.88 °C.

Take `Cc1cc(C)n2c1C=C1C=CC(CCC(=O)NCCOCCOc3cc4c(cc3Oc3ccc(C(=O)O)cc3)[C@@](C)(CC(=O)Nc3nccs3)NCC4)=[N+]1[B-]2(F)F` [Example 59, (R)-4-((6-(2-(2-(3-(5,5-difluoro-7,9-dimethyl-5H-4l4,5l4-dipyrrolo[1,2-c:2′,1′-f][1,3,2]diazaborinin-3-yl)propanamido)ethoxy)ethoxy)-1-methyl-1-(2-oxo-2-(thiazol-2-ylamino)ethyl)-1,2,3,4-tetrahydroisoquinolin-7-yl)oxy)benzoic acid]: the ΔTm at 300 µM in experiment [1] came to 5.15 °C.

On to `C[C@]1(CC(=O)Nc2nccs2)NCCc2cc(OCCOCCNC(=O)CCCC[C@@H]3SC[C@@H]4NC(=O)N[C@@H]43)c(Oc3ccc(C(=O)O)cc3)cc21` [Example 60, 4-(((R)-1-methyl-1-(2-oxo-2-(thiazol-2-ylamino)ethyl)-6-(2-(2-(5-((3aS,4S,6aR)-2-oxohexahydro-1H-thieno[3,4-d]imidazol-4-yl)pentanamido)ethoxy)ethoxy)-1,2,3,4-tetrahydroisoquinolin-7-yl)oxy)benzoic acid], for which, in experiment [1], the ΔTm at 300 µM was 6.42 °C.

On to `COC(=O)c1ccc(Oc2cc3c(cc2OCCOCCNC(=O)CCC2=[N+]4C(=Cc5c(C)cc(C)n5[B-]4(F)F)C=C2)CCN[C@]3(C)CC(=O)Nc2nccs2)cc1F` [Example 61, methyl (R)-4-((6-(2-(2-(3-(5,5-difluoro-7,9-dimethyl-5H-4l4,5l4-dipyrrolo[1,2-c:2′,1′-f][1,3,2]diazaborinin-3-yl)propanamido)ethoxy)ethoxy)-1-methyl-1-(2-oxo-2-(thiazol-2-ylamino)ethyl)-1,2,3,4-tetrahydroisoquinolin-7-yl)oxy)-2-fluorobenzoate], for which, in experiment [1], the ΔTm at 300 µM was found to be 2.87 °C.

On to `Cc1ncsc1-c1ccc(CNC(=O)[C@@H]2C[C@@H](O)CN2C(=O)[C@@H](NC(=O)COCC(=O)NCCOCCOc2cc3c(cc2Oc2ccc(-c4ccc(C(=O)O)cc4)c(F)c2)[C@@](C)(CC(=O)Nc2nccs2)NCC3)C(C)(C)C)cc1` [Example 105, 2′-fluoro-4′-(((R)-6-(((S)-13-((2S,4R)-4-hydroxy-2-((4-(4-methylthiazol-5-yl)benzyl)carbamoyl)pyrrolidine-1-carbonyl)-14,14-dimethyl-7,11-dioxo-3,9-dioxa-6,12-diazapentadecyl)oxy)-1-methyl-1-(2-oxo-2-(thiazol-2-ylamino)ethyl)-1,2,3,4-tetrahydroisoquinolin-7-yl)oxy)-[1,1′-biphenyl]-4-carboxylic acid], for which the IC50 in experiment [2] was found to be 225 nM.

Consider `COc1cc2c(cc1-c1ccc(F)c(C(=O)O)c1)[C@@](C)(CC(=O)Nc1nccs1)NCC2` [Example 112, (R)-2-fluoro-5-(6-methoxy-1-methyl-1-(2-oxo-2-(thiazol-2-ylamino)ethyl)-1,2,3,4-tetrahydroisoquinolin-7-yl)benzoic acid], for which the ΔTm at 300 µM in experiment [1] was found to be 6.8 °C.
